Data as given in US7041787B2, “Design and use of advanced zinc chelating peptides to regulate matrix metalloproteinases” (Kimberly-Clark Worldwide, Inc., priority 2000, dated 2006).
Values belong to the molecule of their own block, whether it stands above or below them. *1 amine or outer side, *2 acyl side, *3 side chain or, on linkers, in order; H or OH if unused. Where a SMILES comes first, the peptide text is derived from it. [ ]: non-standard residue; d: D form. The star is where a group is joined. X2 = O=C(O)CN(CC(=O)O)CC(=O)NC(=O)C[C@H](N[*:1])C(=O)[*:2]; X3 = O=C(O)CN(CC(=O)O)CC(C(=O)NCCS*)N(CC(=O)O)CC(=O)O; X1 = O=C(O)CN(CC(=O)O)c1cc(F)ccc1OCC(=O)*

Legend:
MMP-9 [1] = target: T1, MMP-9 (Homo sapiens, UniProt P14780); assay: Enzymatic hydrolysis of fluoresceinated collagen by MMP-9 (fluorescein release assay); format: biochemical; settings: MMP-9:ChePep-1 molar stoichiometries 1:0 to 1:1, FIG. 1
T1 construct: Active MMP-9 enzyme was purchased from Calbiochem; purchased Calbiochem
T1 sequence (P14780 107-707 limits assumed): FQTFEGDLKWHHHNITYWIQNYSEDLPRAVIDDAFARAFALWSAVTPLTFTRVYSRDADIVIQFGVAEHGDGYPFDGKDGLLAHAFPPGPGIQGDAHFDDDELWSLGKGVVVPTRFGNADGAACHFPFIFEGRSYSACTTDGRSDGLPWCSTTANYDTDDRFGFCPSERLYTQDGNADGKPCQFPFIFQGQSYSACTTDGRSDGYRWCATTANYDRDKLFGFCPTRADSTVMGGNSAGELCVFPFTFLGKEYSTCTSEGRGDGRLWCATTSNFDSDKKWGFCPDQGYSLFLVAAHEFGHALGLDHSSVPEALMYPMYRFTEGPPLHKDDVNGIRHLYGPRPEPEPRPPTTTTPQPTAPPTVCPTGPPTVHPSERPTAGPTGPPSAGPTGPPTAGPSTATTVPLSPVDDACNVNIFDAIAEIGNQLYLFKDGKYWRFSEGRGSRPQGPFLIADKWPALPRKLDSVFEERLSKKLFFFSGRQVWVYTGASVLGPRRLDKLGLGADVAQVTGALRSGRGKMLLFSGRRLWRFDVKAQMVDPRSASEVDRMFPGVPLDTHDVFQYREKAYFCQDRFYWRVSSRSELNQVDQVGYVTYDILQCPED
Procedure: Two enzymatic assays were performed. The first assay measured the enzymatic hydrolysis of fluoresceinated collagen by MMP-9 as a function of time. Fluoresceinated collagen (Molecular Probes, Inc.), at a concentration of 5 μM was added to reaction buffer (50 mM Tris-HCl (pH 7.6), 150 mM NaCl, 5 mM CaCl2, 0.1 mM NaN3) and was placed into a Spectrosil quartz fluorometer cuvette. MMP at a concentration of 0.1 μM was mixed with varying amounts of chelating peptide having SEQ ID No. 4 or 6 and incubated at 25° C. for 10 minutes to effect binding. The protein mixture was added to the collagen substrate and mixed quickly. Fluorescence emission intensity at 520 nm was measured as a function of time (excitation wavelength 495 nm) in a Shimadzu RF5301 fluorometer. The fluorescein release assay was used to determine the inhibitory constant (Ki) of the chelating peptide inhibitor ([I]) according to Segel (1993) via the use of Dixon plots (1/v vs. [I]), such that: slope=Km/(VmaxKi[S]) (1) where Km is the Michaelis constant, Vmax is the reaction maximum velocity, and [S] is the substrate concentration.

Epiderm skin model = assay: Epiderm skin equivalent viability (MTT) assay; format: cell-based; settings: 10 mM peptide in PBS, 12 hours; differences not significant
Procedure: The relative toxicity of the chelating and substrate peptides was assayed using the skin model Epiderm that is commercially available from MatTek Corp. The individual skin sample containers were preincubated in culture medium at 37° C. under 5% CO2 for two hours prior to the addition of the peptide constructs. The sample containers were transferred to 6 well plates that contained fresh media. All peptides were dissolved in PBS at a final concentration of 10 mM, and 100 μL of each peptide solution was pipetted onto the surface of the Epiderm sample container. Incubation was continued for 12 hours at 37° C. under 5% CO2. After the incubation period, the sample containers were washed three times with PBS and the sample containers were transferred to a 24 well plate that contained 300 μL of MTT assay media per well (MTT concentration was 1 mg/mL). The colorimetric assay was allowed to develop for three hours (incubation at 37° C. under 5% CO2). Sample containers were then transferred to a 24 well culture plate that contained 2 mL of isopropanol per well. […] Absorbance readings were taken at 570 nm and 650 nm for each sample. The percent viability of each sample relative to a PBS control was calculated as: 100×(OD570^sam−OD650^sam)/(OD570^con−OD650^con) (5) Routinely, each peptide sample was assayed in duplicate or triplicate. […]

MMP-9 [2] = target: T1, MMP-9; assay: FRET substrate peptide cleavage assay with MMP-9; format: biochemical; settings: for Regulation of MMP-9 in FRET assay (in words): ChePep:MMP-9 molar stoichiometries 0.1:1 to 0.3:1, FIGS. 2-5; for Regulation of MMP-9 compared with other ChePeps (in words): FRET assay, comparison of molar stoichiometries
Procedure: The second assay utilized the technique of fluorescence resonance energy transfer (FRET). The substrate peptide (Calbiochem #444221) comprised seven amino acids, coupled to a carboxyl terminal dinitrophenyl acceptor, and an amino terminal 2-aminobenzo-anthraniloyl (Abz) moiety donor. Cleavage of this substrate by MMP-9 results in the liberation of a fluorescent product (365 nm excitation, 450 nm emission). […] MMP at a concentration of 0.1 μM was mixed with varying amounts of chelating peptide (0, 0.01, 0.02, 0.04, and 0.1 μM) and incubated at 25° C. for 10 minutes to effect binding. The protein mixture was added to the peptide substrate and mixed quickly. Fluorescence intensity as a function of time was measured with a Dynex MFX fluorescence microtiter plate reader. Fluorescence intensity was related back to moles of peptide cleaved by producing a standard curve with an Abz containing non-FRET peptide. Inhibitory constants were derived from the curves and are listed below in Table 2.

MMP-9 [3] = target: T1, MMP-9; assay: Surface plasmon resonance (BiaCore) binding of chelating peptide to immobilized MMP-9; settings: FIG. 6
Procedure: The BiaCore-X surface plasmon resonance (SPR) device was utilized to measure the interaction between the chelating peptide (CP) and MMP-9. For these experiments a carboxymethyl dextran sensor chip (BiaCore, AB; CM-5, Lofas et al., 1993) was activated with 50 mM N-hydroxysuccinimide, 0.2 M N-ethyl-N′-(dimethylaminopropyl)-carbodiimide at a flow rate of 10 μL per minute for ten minutes. MMP-9 at a concentration of 75 ng/μL was coupled to the activated surface at a flow rate of 10 μL per minute for ten minutes. The final surface was inactivated by flowing 1 M ethanolamine HCl at a rate of 10 μL per minute for five minutes over the sensor surface. CP was flowed over the sensor surface at a rate of 20 μL per minute, and at concentrations of 10, 25, and 50 nM. Binding isotherms were evaluated by simultaneously fitting the forward (ka) and reverse (kd) rate constants to the following formula: d[CP˜MMP-9]/dt=(ka[CP][MMP-9])−(kd[CP˜MMP-9]) (2) (Karlsson and Falt, 1997) where [CP], [MMP-9], and [CP˜MMP-9] are the concentrations of free chelating peptide, free MMP-9, and the complex respectively. […]

Molecule: CC(C)[C@H](NC(=O)[C@@H]1CCCN1C(=O)[C@@H](NC(=O)[C@H](C)NC(=O)[C@H](CO)NC(=O)[C@@H](N)CSSCCNC(=O)C(CN(CC(=O)O)CC(=O)O)N(CC(=O)O)CC(=O)O)C(C)C)C(=O)N[C@@H](Cc1c[nH]cn1)C(=O)O (some centres unmarked) [ChePep-1] (H-C(X3)SAVPVH-OH)
Regulation of MMP-9 hydrolysis of fluoresceinated collagen (in words) (MMP-9 [1]): prevents the enzyme from degrading fluoresceinated collagen in a dose dependent manner

Molecule: pyridine disulfide ethylenediaminetetraacetic acid [PSDE]
Percent viability relative to PBS control, by zinc chelator of the construct (Epiderm skin model): 96.5%

Regulation of MMP-9 in FRET assay (in words) (MMP-9 [2]): dose dependent manner
Molecule: CC(C)[C@H](NC(=O)[C@@H]1CCCN1C(=O)[C@@H](NC(=O)[C@H](C)NC(=O)[C@H](CO)NC(=O)[C@@H](N)CC(=O)NC(=O)CN(CC(=O)O)CC(=O)O)C(C)C)C(=O)N[C@@H](Cc1c[nH]cn1)C(N)=O [ChePep-2] (H-[X2]SAVPVH-NH2)
Regulation of MMP-9 compared with other ChePeps (in words) (MMP-9 [2]): significantly more effective in regulating MMP-9 than was ChepPep-1

Molecule: CC[C@H](C)[C@H](N)C(=O)N[C@@H](Cc1ccc(O)cc1)C(=O)N[C@H](C(=O)N[C@@H](C)C(=O)N[C@@H](CC(=O)NC(=O)CN(CC(=O)O)CC(=O)O)C(=O)N[C@@H](CCSC)C(=O)N[C@@H](CO)C(=O)N[C@@H](C)C(=O)N[C@H](C(N)=O)C(C)C)[C@@H](C)O [ChePep-4] (H-IYTA[X2]MSAV-NH2; N-terminus and C-terminus assumed)
Regulation of MMP-9 compared with other ChePeps (in words) (MMP-9 [2]): nearly identical ability to regulate MMP-9

Regulation of MMP-9 compared with other ChePeps (in words) (MMP-9 [2]): most potent regulator of all the ChePeps
SPR association / affinity for immobilized MMP-9 (in words) (MMP-9 [3]; 400 second association phase, 20 μL per minute): binds quickly and with high affinity
SPR dissociation from immobilized MMP-9 (in words) (MMP-9 [3]; 800 second dissociation phase): does not dissociate
Molecule: CC(C)C(NC(=O)C(CS)NC(=O)C(NC(=O)C(CS)NC(=O)COc1ccc(F)cc1N(CC(=O)O)CC(=O)O)C(C)O)C(=O)N1CCCC1C(=O)O (centres unmarked) [ChePep-6] (X1-CTCVP-OH; configuration not given here)
Regulation of MMP-9 in FRET assay (in words) (MMP-9 [2]): effective MMP-9 regulator at low molar stoichiometries

Molecule: 2-amino-4-fluorophenol N,N,O triacetic acid [AFTA]
Percent viability relative to PBS control, by zinc chelator of the construct (Epiderm skin model): 90.5%

Molecule: CC[C@H](C)[C@H](N)C(=O)N[C@@H](Cc1ccc(O)cc1)C(=O)N[C@H](C(=O)N[C@@H](C)C(=O)N[C@@H](CSSCCNC(=O)C(CN(CC(=O)O)CC(=O)O)N(CC(=O)O)CC(=O)O)C(=O)N[C@@H](CCSC)C(=O)N[C@@H](CO)C(=O)N[C@@H](C)C(=O)N[C@H](C(N)=O)C(C)C)[C@@H](C)O (some centres unmarked) [ChePep-3] (H-IYTAC(X3)MSAV-NH2; N-terminus assumed)
Regulation of MMP-9 compared with other ChePeps (in words) (MMP-9 [2]): nearly identical ability to regulate MMP-9
